In ChEMBL document CHEMBL3885861, “Open TG-GATES”:

Species on record: Rattus norvegicus
Test: Open TG-GATES - Regimen: Daily Repeat
Assay type: toxicity, organism-based, Sprague-Dawley
Design: regimen Daily Repeat, gender Male, age 6 weeks
Details: in vivo, po, 300 mg/kg, route gavage, dose level High; for APTT / Bas / Eos / Fbg / Hb / Ht / Lym / MCH / MCHC / MCV / Mono / Neu / PT / Plat / RBC / Ret / WBC: tissue Blood; for KIDNEY_L / KIDNEY_R / KIDNEY_TOTAL: tissue Kidney; for LIVER: tissue Liver; for A/G / ALP / ALT / AST / BUN / CRE / Ca / Cl / DBIL / GLC / IP / K / LDH / Na / PL / RALB / TBIL / TC / TG / TP / gamma-GTP: tissue Plasma

`CC[C@H]1[C@@H]2C[C@H]3[C@@H]4N(C)c5ccccc5[C@]45C[C@@H]([C@@H]2[C@H]5O)N3[C@@H]1O` [AJMALINE] showed a TERMINAL_BW (72 h, time 3 day) of 209.6 g, an APTT (72 h, time 3 day) of 16.2 s and a Bas (72 h, time 3 day) of 0%. The Eos (72 h, time 3 day) was 1%, the Fbg (72 h, time 3 day) was 214 mg/dL and the Hb (72 h, time 3 day) was 12.9 g/dL. The Ht (72 h, time 3 day) was 39.7%, the Lym (72 h, time 3 day) was 82.8% and the MCH (72 h, time 3 day) was 20.9 pg. The MCHC (72 h, time 3 day) was 32.4%, the MCV (72 h, time 3 day) was 64.4 fL and the Mono (72 h, time 3 day) was 7.2%. It also gave a Neu (72 h, time 3 day) of 9.6%, a PT (72 h, time 3 day) of 11.6 s and a Plat (72 h, time 3 day) of 121.1 x10_4/uL. It also gave an RBC (72 h, time 3 day) of 616.8 x10_4/ul, a Ret (72 h, time 3 day) of 7.8% and a WBC (72 h, time 3 day) of 133 x10_2/uL. For the same compound, the KIDNEY_L (72 h, time 3 day) was 0.9 g, the KIDNEY_R (72 h, time 3 day) was 0.9 g and the KIDNEY_TOTAL (72 h, time 3 day) was 1.9 g. The LIVER (72 h, time 3 day) was 10.3 g, the A/G (72 h, time 3 day) was 2 and the ALP (72 h, time 3 day) was 989.6 IU/L. The ALT (72 h, time 3 day) was 44.2 IU/L, the AST (72 h, time 3 day) was 68.2 IU/L and the BUN (72 h, time 3 day) was 17 mg/dL. The CRE (72 h, time 3 day) was 0.5 mg/dL, the Ca (72 h, time 3 day) was 11.5 mg/dL and the Cl (72 h, time 3 day) was 100.4 meq/L. It also gave a DBIL (72 h, time 3 day) of 0.034 mg/dL, a GLC (72 h, time 3 day) of 200 mg/dL and an IP (72 h, time 3 day) of 8.3 mg/dL. The K (72 h, time 3 day) was 4.4 meq/L, the LDH (72 h, time 3 day) was 123.2 IU/L and the Na (72 h, time 3 day) was 138.8 meq/L. It also gave a PL (72 h, time 3 day) of 150 mg/dL, an RALB (72 h, time 3 day) of 3.6 g/dL and a TBIL (72 h, time 3 day) of 0.3 mg/dL. It also gave a TC (72 h, time 3 day) of 87.6 mg/dL, a TG (72 h, time 3 day) of 57.2 mg/dL and a TP (72 h, time 3 day) of 5.4 g/dL. The gamma-GTP (72 h, time 3 day) was 0.8 IU/L, the TERMINAL_BW ([…], time 7 day) was 244.7 g and the TERMINAL_BW ([…], time 14 day) was 293.9 g. It also gave a TERMINAL_BW ([…], time 28 day) of 349.6 g, an APTT ([…], time 7 day) of 16.4 s and a Bas ([…], time 7 day) of 0%. It also gave an Eos ([…], time 7 day) of 0.8%, a Fbg ([…], time 7 day) of 225.6 mg/dL and a Hb ([…], time 7 day) of 13.2 g/dL. It also gave a Ht ([…], time 7 day) of 39.9%, a Lym ([…], time 7 day) of 81% and an MCH ([…], time 7 day) of 21.1 pg. It also gave an MCHC ([…], time 7 day) of 33.1%, an MCV ([…], time 7 day) of 63.6 fL and a Mono ([…], time 7 day) of 4.4%. The Neu ([…], time 7 day) was 13.4%, the PT ([…], time 7 day) was 11.3 s and the Plat ([…], time 7 day) was 142.3 x10_4/uL. It also gave an RBC ([…], time 7 day) of 627.2 x10_4/ul, a Ret ([…], time 7 day) of 7% and a WBC ([…], time 7 day) of 118.8 x10_2/uL. The APTT ([…], time 14 day) was 16.3 s, the Bas ([…], time 14 day) was 0% and the Eos ([…], time 14 day) was 1%. The Fbg ([…], time 14 day) was 234.8 mg/dL, the Hb ([…], time 14 day) was 13.9 g/dL and the Ht ([…], time 14 day) was 42%. For the same compound, the Lym ([…], time 14 day) was 83.2%, the MCH ([…], time 14 day) was 20.8 pg and the MCHC ([…], time 14 day) was 33.1%. The MCV ([…], time 14 day) was 62.7 fL, the Mono ([…], time 14 day) was 4.2% and the Neu ([…], time 14 day) was 11.8%. It also gave a PT ([…], time 14 day) of 11.2 s, a Plat ([…], time 14 day) of 140.6 x10_4/uL and an RBC ([…], time 14 day) of 670 x10_4/ul. For the same compound, the Ret ([…], time 14 day) was 5.6%, the WBC ([…], time 14 day) was 139.9 x10_2/uL and the APTT ([…], time 28 day) was 17.3 s. The Bas ([…], time 28 day) was 0%, the Eos ([…], time 28 day) was 1.2% and the Fbg ([…], time 28 day) was 244.2 mg/dL. For the same compound, the Hb ([…], time 28 day) was 15.3 g/dL, the Ht ([…], time 28 day) was 45.1% and the Lym ([…], time 28 day) was 80.8%. The MCH ([…], time 28 day) was 19.8 pg, the MCHC ([…], time 28 day) was 33.9% and the MCV ([…], time 28 day) was 58.3 fL. The Mono ([…], time 28 day) was 5%, the Neu ([…], time 28 day) was 13.4% and the PT ([…], time 28 day) was 11.3 s. The Plat ([…], time 28 day) was 141.8 x10_4/uL, the RBC ([…], time 28 day) was 772.4 x10_4/ul and the Ret ([…], time 28 day) was 2.8%. For the same compound, the WBC ([…], time 28 day) was 147.5 x10_2/uL, the KIDNEY_L ([…], time 7 day) was 1.1 g and the KIDNEY_R ([…], time 7 day) was 1.1 g. For the same compound, the KIDNEY_TOTAL ([…], time 7 day) was 2.2 g, the KIDNEY_L ([…], time 14 day) was 1.2 g and the KIDNEY_R ([…], time 14 day) was 1.2 g. The KIDNEY_TOTAL ([…], time 14 day) was 2.4 g, the KIDNEY_L ([…], time 28 day) was 1.3 g and the KIDNEY_R ([…], time 28 day) was 1.4 g. It also gave a KIDNEY_TOTAL ([…], time 28 day) of 2.7 g, an LIVER ([…], time 7 day) of 11.7 g and an LIVER ([…], time 14 day) of 13.4 g. The LIVER ([…], time 28 day) was 15.4 g, the A/G ([…], time 7 day) was 1.9 and the ALP ([…], time 7 day) was 944.4 IU/L. For the same compound, the ALT ([…], time 7 day) was 37 IU/L, the AST ([…], time 7 day) was 57.8 IU/L and the BUN ([…], time 7 day) was 16.8 mg/dL. The CRE ([…], time 7 day) was 0.5 mg/dL, the Ca ([…], time 7 day) was 11.6 mg/dL and the Cl ([…], time 7 day) was 103 meq/L. For the same compound, the DBIL ([…], time 7 day) was 0.026 mg/dL, the GLC ([…], time 7 day) was 189.8 mg/dL and the IP ([…], time 7 day) was 8.3 mg/dL. It also gave a K ([…], time 7 day) of 4.6 meq/L, an LDH ([…], time 7 day) of 98.8 IU/L and a Na ([…], time 7 day) of 141.4 meq/L. It also gave a PL ([…], time 7 day) of 142 mg/dL, an RALB ([…], time 7 day) of 3.5 g/dL and a TBIL ([…], time 7 day) of 0.4 mg/dL. It also gave a TC ([…], time 7 day) of 80.8 mg/dL, a TG ([…], time 7 day) of 56.8 mg/dL and a TP ([…], time 7 day) of 5.4 g/dL. It also gave a gamma-GTP ([…], time 7 day) of 1.2 IU/L, an A/G ([…], time 14 day) of 2.1 and an ALP ([…], time 14 day) of 849.4 IU/L. For the same compound, the ALT ([…], time 14 day) was 35.4 IU/L, the AST ([…], time 14 day) was 62.2 IU/L and the BUN ([…], time 14 day) was 17.8 mg/dL. The CRE ([…], time 14 day) was 0.5 mg/dL, the Ca ([…], time 14 day) was 11.4 mg/dL and the Cl ([…], time 14 day) was 102.6 meq/L. The DBIL ([…], time 14 day) was 0.022 mg/dL, the GLC ([…], time 14 day) was 201.8 mg/dL and the IP ([…], time 14 day) was 8.2 mg/dL. For the same compound, the K ([…], time 14 day) was 4.8 meq/L, the LDH ([…], time 14 day) was 101.8 IU/L and the Na ([…], time 14 day) was 140 meq/L. The PL ([…], time 14 day) was 142.4 mg/dL, the RALB ([…], time 14 day) was 3.7 g/dL and the TBIL ([…], time 14 day) was 0.5 mg/dL. The TC ([…], time 14 day) was 73.6 mg/dL, the TG ([…], time 14 day) was 82 mg/dL and the TP ([…], time 14 day) was 5.5 g/dL. The gamma-GTP ([…], time 14 day) was 1.6 IU/L, the A/G ([…], time 28 day) was 1.8 and the ALP ([…], time 28 day) was 589.2 IU/L. It also gave an ALT ([…], time 28 day) of 38.4 IU/L, an AST ([…], time 28 day) of 61.8 IU/L and a BUN ([…], time 28 day) of 19 mg/dL. For the same compound, the CRE ([…], time 28 day) was 0.7 mg/dL, the Ca ([…], time 28 day) was 11 mg/dL and the Cl ([…], time 28 day) was 103.2 meq/L. The DBIL ([…], time 28 day) was 0.036 mg/dL, the GLC ([…], time 28 day) was 187.2 mg/dL and the IP ([…], time 28 day) was 7.3 mg/dL. For the same compound, the K ([…], time 28 day) was 4.8 meq/L, the LDH ([…], time 28 day) was 88.4 IU/L and the Na ([…], time 28 day) was 140.8 meq/L. For the same compound, the PL ([…], time 28 day) was 172.8 mg/dL, the RALB ([…], time 28 day) was 3.9 g/dL and the TBIL ([…], time 28 day) was 0.3 mg/dL. It also gave a TC ([…], time 28 day) of 96.8 mg/dL, a TG ([…], time 28 day) of 73.6 mg/dL and a TP ([…], time 28 day) of 6.1 g/dL. The gamma-GTP ([…], time 28 day) was 1.4 IU/L.
